# Reference: patent US20240002391A1, “4-ALKOXYPYRROLO[2,1-F][1,2,4]TRIAZINES AND PREPARATION AND USES THEREOF” (BioSplice Therapeutics, Inc., priority 2022, published 2024)
# Molecular target: recombinant DYRK1A kinase (Homo sapiens (Human), UniProt Q13627)
# Test: DYRK1A kinase assay (Ser/Thr 18 peptide Z-lyte FRET)
# Format: biochemical
# Conditions: DYRK1A kinase activity, Z-lyte Ser/Thr 18 peptide, 15 μM ATP; method text calls the value IC50; read-out: EC50 (the source's name)
# How it was run: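 Steps: combine 0.25 μg/mL kinase, 15 μM ATP and 4 μM peptide with test compound; incubate 1 h at room temperature; add diluted development reagent for another hour; read coumarin and fluorescein emission at Ex 400. The emission ratio yields percent phosphorylation, from which IC50 is derived.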
row,SMILES,IC50
1,"COc1nc(NC2CCC3(CC2)CN(C(C)=O)C3)nn2ccc(-c3ccc4nnn(C)c4c3)c12 [Compound 229, 1-(7-((4-Methoxy-5-(1-methyl-1H-benzo[d][1,2,3]triazol-6-yl)pyrrolo[2,1-f][1,2,4]triazin-2-yl)amino)-2-azaspiro[3.5]nonan-2-yl)ethan-1-one]",1.9 nM
2,"COc1nc(NC2CCN(C3COC3)CC2)nn2ccc(-c3ccc4nccnc4c3)c12 [Compound 365, 4-Methoxy-N-(1-(oxetan-3-yl)piperidin-4-yl)-5-(quinoxalin-6-yl)pyrrolo[2,1-f][1,2,4]triazin-2-amine]",2.8 nM
3,"CNC(=O)[C@]1(C)C[C@@H](Nc2nc(OC)c3c(-c4ccc5nc(C)n(CC(F)F)c5c4)ccn3n2)C1 [Compound 502, trans-3-((5-(1-(2,2-Difluoroethyl)-2-methyl-1H-benzo[d]imidazol-6-yl)-4-methoxypyrrolo[2,1-f][1,2,4]triazin-2-yl)amino)-N,1-dimethylcyclobutane-1-carboxamide]",1.4 nM
4,"COc1nc(N[C@H]2CCN(C(C)=O)C[C@H]2F)nn2ccc(-c3cc(F)c4nc(C)n(C(C)C)c4c3)c12 [Compound 544, 1-((3R,4S)-3-Fluoro-4-((5-(4-fluoro-1-isopropyl-2-methyl-1H-benzo[d]imidazol-6-yl)-4-methoxypyrrolo[2,1-f][1,2,4]triazin-2-yl)amino)piperidin-1-yl)ethan-1-one]",0.9 nM
5,"COc1nc(N[C@@H]2CCN(C3COC3)CC2(F)F)nn2ccc(-c3ccc4nc(C)n(CC(F)F)c4c3)c12 [Compound 142, (R)—N-(3,3-Difluoro-1-(oxetan-3-yl)piperidin-4-yl)-5-(1-(2,2-difluoroethyl)-2-methyl-1H-benzo[d]imidazol-6-yl)-4-methoxypyrrolo[2,1-f][1,2,4]triazin-2-amine]",2.7 nM
6,"COc1nc(N[C@@H]2CCNCC2(F)F)nn2ccc(-c3cnc4nccn4c3)c12 [Compound 964, (R)—N-(3,3-Difluoropiperidin-4-yl)-5-(imidazo[1,2-a]pyrimidin-6-yl)-4-methoxypyrrolo[2,1-f][1,2,4]triazin-2-amine]",4.3 nM
7,"COc1nc(N[C@@H]2CN(C3COC3)C[C@@H]2F)nn2ccc(-c3cnc4nccn4c3)c12 [Compound 266, N-((3R,4S)-4-Fluoro-1-(oxetan-3-yl)pyrrolidin-3-yl)-5-(imidazo[1,2-a]pyrimidin-6-yl)-4-methoxypyrrolo[2,1-f][1,2,4]triazin-2-amine]",2.9 nM
8,"COc1nc(NC2CCC3(CC2)CN(C(=O)OC(C)(C)C)C3)nn2ccc(-c3ccc4ncnn4c3)c12 [Compound 197, tert-Butyl 7-((5-([1,2,4]triazolo[1,5-a]pyridin-6-yl)-4-methoxypyrrolo[2,1-f][1,2,4]triazin-2-yl)amino)-2-azaspiro[3.5]nonane-2-carboxylate]",29.6 nM
9,"COc1nc(N[C@H]2CCN(C(C)=O)C[C@H]2F)nn2ccc(-c3ccc4nnn(C(C)C)c4c3)c12 [Compound 686, 1-((3R,4S)-3-Fluoro-4-((5-(1-isopropyl-1H-benzo[d][1,2,3]triazol-6-yl)-4-methoxypyrrolo[2,1-f][1,2,4]triazin-2-yl)amino)piperidin-1-yl)ethan-1-one]",3.4 nM
10,"COc1nc(N[C@H]2C[C@](C)(C(=O)NC3(C)COC3)C2)nn2ccc(-c3ccc4ncccc4c3)c12 [Compound 1042, trans-3-((4-Methoxy-5-(quinolin-6-yl)pyrrolo[2,1-f][1,2,4]triazin-2-yl)amino)-1-methyl-N-(3-methyloxetan-3-yl)cyclobutane-1-carboxamide]",1.2 nM
11,"COc1nc(N[C@H]2C[C@@](C)(N)C2)nn2ccc(-c3ccc4nccnc4c3)c12 [Compound 332, cis-N1-(4-Methoxy-5-(quinoxalin-6-yl)pyrrolo[2,1-f][1,2,4]triazin-2-yl)-3-methylcyclobutane-1,3-diamine]",2.8 nM
12,"COc1nc(NCC(C)(C)C#N)nn2ccc(-c3cnc4nccn4c3)c12 [Compound 1146, 3-((5-(Imidazo[1,2-a]pyrimidin-6-yl)-4-methoxypyrrolo[2,1-f][1,2,4]triazin-2-yl)amino)-2,2-dimethylpropanenitrile]",2 nM
13,"COc1nc(N[C@H]2CC[C@@H](OC)CC2)nn2ccc(-c3ccn4nccc4c3)c12 [Compound 9, 4-Methoxy-N-(cis-4-methoxycyclohexyl)-5-(pyrazolo[1,5-a]pyridin-5-yl)pyrrolo[2,1-f][1,2,4]triazin-2-amine]",9960 nM
14,"COc1nc(NC2CCOCC2)nn2ccc(-c3ccn4nccc4c3)c12 [Compound 36, 4-Methoxy-5-(pyrazolo[1,5-a]pyridin-5-yl)-N-(tetrahydro-2H-pyran-4-yl)pyrrolo[2,1-f][1,2,4]triazin-2-amine]",12.1 nM
15,"COc1nc(N[C@H]2C[C@@](C)(NC(C)=O)C2)nn2ccc(-c3ccc4nc(C)n(CC(F)F)c4c3)c12 [Compound 108, N-(cis-3-((5-(1-(2,2-Difluoroethyl)-2-methyl-1H-benzo[d]imidazol-6-yl)-4-methoxypyrrolo[2,1-f][1,2,4]triazin-2-yl)amino)-1-methylcyclobutyl)acetamide]",3.3 nM
16,"COc1nc(N[C@H]2CCN(CC(C)(C)O)C[C@H]2F)nn2ccc(-c3ccc4nnn(CC(F)F)c4c3)c12 [Compound 758, 1-((3R,4S)-4-((5-(1-(2,2-Difluoroethyl)-1H-benzo[d][1,2,3]triazol-6-yl)-4-methoxypyrrolo[2,1-f][1,2,4]triazin-2-yl)amino)-3-fluoropiperidin-1-yl)-2-methylpropan-2-ol]",1.1 nM
17,"COc1nc(N[C@@H]2CCN(C3COC3)CC2(F)F)nn2ccc(-c3cc(F)c4nc(C)n(CC(F)F)c4c3)c12 [Compound 164, (R)—N-(3,3-Difluoro-1-(oxetan-3-yl)piperidin-4-yl)-5-(1-(2,2-difluoroethyl)-4-fluoro-2-methyl-1H-benzo[d]imidazol-6-yl)-4-methoxypyrrolo[2,1-f][1,2,4]triazin-2-amine]",2.1 nM
18,"COc1nc(N[C@H]2C[C@](C)(NC(=O)OC(C)(C)C)C2)nn2ccc(-c3ccn4nccc4c3)c12 [Compound 98, tert-Butyl (trans-3-((4-methoxy-5-(pyrazolo[1,5-a]pyridin-5-yl)pyrrolo[2,1-f][1,2,4]triazin-2-yl)amino)-1-methylcyclobutyl)carbamate]",25.6 nM
19,"COc1nc(N[C@H]2C[C@@](C)(NC(C)=O)C2)nn2cc(F)c(-c3ccc4ncccc4c3)c12 [Compound 1052, N-(cis-3-((6-Fluoro-4-methoxy-5-(quinolin-6-yl)pyrrolo[2,1-f][1,2,4]triazin-2-yl)amino)-1-methylcyclobutyl)acetamide]",4.5 nM
20,"COc1nc(N[C@H]2CC[C@@H](OC)CC2)nn2ccc(-c3cnc4nccn4c3)c12 [Compound 243, 5-(imidazo[1,2-a]pyrimidin-6-yl)-4-methoxy-N-(cis-4-methoxycyclohexyl)pyrrolo[2,1-f][1,2,4]triazin-2-amine]",1.2 nM
21,"COc1nc(NC2CCC(=O)N(C)C2)nn2ccc(-c3ccc4nc(C)n(CC(F)F)c4c3)c12 (centres unmarked) [Compound 507, 5-((5-(1-(2,2-Difluoroethyl)-2-methyl-1H-benzo[d]imidazol-6-yl)-4-methoxypyrrolo[2,1-f][1,2,4]triazin-2-yl)amino)-1-methylpiperidin-2-one]",3.1 nM
22,"COCCO[C@H]1CC[C@H](Nc2nc(OC)c3c(-c4ccn5nccc5c4)ccn3n2)CC1 [Compound 16, 4-Methoxy-N-(trans-4-(2-methoxyethoxy)cyclohexyl)-5-(pyrazolo[1,5-a]pyridin-5-yl)pyrrolo[2,1-f][1,2,4]triazin-2-amine]",34.4 nM
23,"COc1nc(N[C@H]2C[C@@](C)(C(=O)NC3CC3)C2)nn2ccc(-c3ccc4nnn(C)c4c3)c12 [Compound 217, cis-N-Cyclopropyl-3-((4-methoxy-5-(1-methyl-1H-benzo[d][1,2,3]triazol-6-yl)pyrrolo[2,1-f][1,2,4]triazin-2-yl)amino)-1-methylcyclobutane-1-carboxamide]",9.3 nM
24,"COc1nc(NC2CCOC(C)(C)C2)nn2ccc(-c3cnc4nccn4c3)c12 (centres unmarked) [Compound 1148, N-(2,2-Dimethyltetrahydro-2H-pyran-4-yl)-5-(imidazo[1,2-a]pyrimidin-6-yl)-4-methoxypyrrolo[2,1-f][1,2,4]triazin-2-amine]",0.6 nM
25,"COc1nc(N[C@H]2C[C@](C)(C(=O)N(C)C)C2)nn2ccc(-c3ccc4ncccc4c3)c12 [Compound 290, trans-3-((4-Methoxy-5-(quinolin-6-yl)pyrrolo[2,1-f][1,2,4]triazin-2-yl)amino)-N,N,1-trimethylcyclobutane-1-carboxamide]",1.8 nM
26,"COCC[C@@H](C)Nc1nc(OC)c2c(-c3cnc4nccn4c3)ccn2n1 [Compound 926, (R)-5-(Imidazo[1,2-a]pyrimidin-6-yl)-4-methoxy-N-(4-methoxybutan-2-yl)pyrrolo[2,1-f][1,2,4]triazin-2-amine]",5.6 nM
27,"COc1nc(N[C@H]2C[C@@](C)(N)C2)nn2ccc(-c3ccc4nnn(C)c4c3)c12 [Compound 202, cis-N^1-(4-Methoxy-5-(1-methyl-1H-benzo[d][1,2,3]triazol-6-yl)pyrrolo[2,1-f][1,2,4]triazin-2-yl)-3-methylcyclobutane-1,3-diamine]",10.9 nM
28,"COc1nc(N[C@H]2CCN(C)CC2(F)F)nn2ccc(-c3ccc4ncccc4c3)c12 [Compound 320, (S)—N-(3,3-Difluoro-1-methylpiperidin-4-yl)-4-methoxy-5-(quinolin-6-yl)pyrrolo[2,1-f][1,2,4]triazin-2-amine]",8.2 nM
29,"COc1nc(N[C@H]2CCN(C3COC3)C[C@H]2F)nn2ccc(-c3cc(F)c4nc(C)n(CC(F)F)c4c3)c12 [Compound 161, 5-(1-(2,2-Difluoroethyl)-4-fluoro-2-methyl-1H-benzo[d]imidazol-6-yl)-N-((3R,4S)-3-fluoro-1-(oxetan-3-yl)piperidin-4-yl)-4-methoxypyrrolo[2,1-f][1,2,4]triazin-2-amine]",3 nM
